Source: ChEMBL document CHEMBL5523667, “Blood-stage antimalarial activity, favourable metabolic stability and in vivo toxicity of novel piperazine linked 7-chloroquinoline-triazole conjugates” (Eur J Med Chem, 2024)
Active and inactive are the calls of the source. The calls are words filed in the database; no cut-off is given here.

What was measured:
Falcipain 2 [1] = molecular target: T1, Falcipain 2 (Plasmodium falciparum, UniProt Q9N6S8); assay: Binding affinity to N-terminal 6His-tagged recombinant Plasmodium falciparum FP2 expressed in Escherichia coli M15 assessed as dissociation constant incubated for 15 mins in presence of lysine reactive dye by microscale thermophoretic analysis
T1 sequence (Q9N6S8 whole entry): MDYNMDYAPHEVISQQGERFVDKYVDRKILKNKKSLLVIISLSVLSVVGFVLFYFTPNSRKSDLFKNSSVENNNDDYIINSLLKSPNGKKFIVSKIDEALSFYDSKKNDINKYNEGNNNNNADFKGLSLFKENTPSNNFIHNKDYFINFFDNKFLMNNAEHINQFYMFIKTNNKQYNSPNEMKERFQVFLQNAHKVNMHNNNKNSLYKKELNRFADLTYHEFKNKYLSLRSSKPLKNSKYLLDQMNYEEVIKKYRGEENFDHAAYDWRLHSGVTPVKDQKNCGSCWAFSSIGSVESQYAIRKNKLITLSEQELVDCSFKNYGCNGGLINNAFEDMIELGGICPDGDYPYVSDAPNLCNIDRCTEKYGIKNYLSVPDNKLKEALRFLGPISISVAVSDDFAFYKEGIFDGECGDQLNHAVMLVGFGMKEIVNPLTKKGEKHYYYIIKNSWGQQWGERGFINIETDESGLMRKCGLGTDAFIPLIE

Plasmodium falciparum [2] = assay: Antimalarial activity against chloroquine-resistant Plasmodium falciparum K1 assessed as inhibition of parasite growth by lactate dehydrogenase assay; type: functional, organism-based
Plasmodium berghei [3] = assay: Antimalarial activity against Plasmodium berghei ANKA infected in BALB/c mouse assessed as reduction in gametocyte development at 50 to 100 mg/kg, ip preadministered with phenylhydrazine for 3 days followed by compound administration and measured after 4 days by Giemsa staining based light microscopic analysis; type: functional, organism-based; settings: dose 50-100 mg/kg, time 4.0 day
[4] = molecular target: T2, Falcipain-3 (Plasmodium falciparum 3D7) (UniProt Q8IIL0); assay: Inhibition of N-terminal 6His-tagged recombinant Plasmodium falciparum FP3 expressed in Escherichia coli M15 using Z-Phe-Arg-AMC as substrate at 5 uM measured after 30 mins by microplate reader analysis relative to control
T2 sequence (whole entry): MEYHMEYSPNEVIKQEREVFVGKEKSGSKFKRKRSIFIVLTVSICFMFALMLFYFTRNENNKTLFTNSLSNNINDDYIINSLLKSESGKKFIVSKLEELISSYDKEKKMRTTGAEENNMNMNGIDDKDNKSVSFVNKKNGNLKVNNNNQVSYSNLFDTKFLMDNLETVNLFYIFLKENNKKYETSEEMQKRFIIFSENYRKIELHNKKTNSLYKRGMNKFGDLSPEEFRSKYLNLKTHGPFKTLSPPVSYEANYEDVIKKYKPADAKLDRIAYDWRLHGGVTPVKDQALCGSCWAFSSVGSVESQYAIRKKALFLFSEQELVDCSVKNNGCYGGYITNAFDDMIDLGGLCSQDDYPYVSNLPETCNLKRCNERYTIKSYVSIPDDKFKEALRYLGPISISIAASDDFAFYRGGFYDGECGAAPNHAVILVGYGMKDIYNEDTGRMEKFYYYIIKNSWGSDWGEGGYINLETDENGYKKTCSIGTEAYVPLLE

[5] = Toxicity in mouse assessed as cell apoptosis in spleen at 100 to 200 mg/kg measured after 7 days by hematoxylin and eosin staining based analysis; type: organism-based; settings: in vivo, 168 h, dose 100-200 mg/kg, time 7 day
Plasmodium falciparum [6] = assay: Resistance index, ratio of IC50 for antimalarial activity against chloroquine-resistant Plasmodium falciparum K1 to IC50 for antimalarial activity against chloroquine-sensitive Plasmodium falciparum NF54; type: functional
[7] = Stability of the compound in simulated intestinal fluid at pH 6.8 at 1 uM measured after 120 mins by LC-MS/MS analysis; type: ADME; settings: simulated gi fluid, pH 6.8, 2 h
Plasmodium falciparum [8] = assay: Antimalarial activity against synchronized-ring stage chloroquine-sensitive Plasmodium falciparum 3D7 assessed as growth progression defect from ring to schizont stage measured upto 60 hrs post-treatment by Giemsa staining based light microscopic analysis; type: functional, organism-based
[9] = Toxicity in mouse assessed as latency to fall off the rotating rod by measuring neuromuscular coordination index at 100 mg/kg by rotarod apparatus (reference value: 12.45 +/- 1.48 ); type: organism-based; settings: in vivo
Plasmodium berghei [10] = assay: Antimalarial activity against Plasmodium berghei ANKA infected in BALB/c mouse assessed as increase in survival at 50 to 100 mg/kg, ip p preadministered with phenylhydrazine for 3 days followed by compound administration and measured after 5 days; type: functional, organism-based; settings: dose 50-100 mg/kg, time 5.0 day
Falcipain 2 [11] = molecular target: T1, Falcipain 2; assay: Binding affinity to N-terminal 6His-tagged recombinant Plasmodium falciparum FP2 expressed in Escherichia coli M15 assessed as dissociation constant by surface plasmon resonance analysis
Plasmodium berghei [12] = assay: Antimalarial activity against Plasmodium berghei ANKA infected in female BALB/c mouse assessed as reduction in parasitemia at 50 to 100 mg/kg, ip administered daily for 7 days by Giemsa staining based light microscopy; type: functional, organism-based; settings: dose 50-100 mg/kg, time 7.0 day
[13] = Toxicity in mouse assessed as cell necrosis in spleen at 100 to 200 mg/kg measured after 7 days by hematoxylin and eosin staining based analysis; type: organism-based; settings: in vivo, 168 h, dose 100-200 mg/kg, time 7 day
[14] = Toxicity in mouse assessed as cell apoptosis in liver at 100 to 200 mg/kg measured after 7 days by hematoxylin and eosin staining based analysis; type: organism-based; settings: in vivo, 168 h, dose 100-200 mg/kg, time 7 day
Falcipain 2 [15] = molecular target: T1, Falcipain 2; assay: Inhibition of N-terminal 6His-tagged recombinant Plasmodium falciparum FP2 expressed in Escherichia coli M15 using Z-Phe-Arg-AMC as substrate measured after 30 mins by microplate reader analysis
Falcipain-3 = molecular target: T3, Falcipain-3 (Plasmodium falciparum 3D7, UniProt Q8IIL0); assay: Binding affinity to N-terminal 6His-tagged recombinant Plasmodium falciparum FP3 expressed in Escherichia coli M15 assessed as dissociation constant by surface plasmon resonance analysis
T3 sequence (Q8IIL0 whole entry): T2 sequence (whole entry)

[16] = Metabolic stability in human liver S9 fraction assessed as intrinsic clearance at 2 uM measured 90 mins by LC-MS/MS analysis; type: ADME, subcellular; settings: read-out: CLH
Plasmodium falciparum [17] = assay: Synergistic antimalarial activity against chloroquine-sensitive Plasmodium falciparum 3D7 assessed as fractional inhibitory concentration incubated for 60 hrs in presence of chloroquine by SYBR Green staining based analysis; type: functional
Falcipain 2 [18] = molecular target: T1, Falcipain 2; assay: Competitive inhibition of N-terminal 6His-tagged recombinant Plasmodium falciparum FP2 expressed in Escherichia coli M15 assessed as inhibition constant using Z-Phe-Arg-AMC as substrate measured after 30 mins by microplate reader analysis
Plasmodium falciparum [19] = assay: Antimalarial activity against synchronized-trophozoite stage chloroquine-sensitive Plasmodium falciparum 3D7 assessed as inhibition of parasite growth by measuring pyknotic appearance measured upto 60 hrs by Giemsa staining based light microscopic analysis; type: functional, organism-based
Plasmodium berghei [20] = assay: Antimalarial activity against Plasmodium berghei ANKA infected in female BALB/c mouse assessed as reduction in parasitemia at 100 mg/kg, ip measured on day 4 post infection by Giemsa staining based light microscopy (Rvb >17 %); type: functional; set-up: scale not given: the % may be the effect or the level left
[21] = Toxicity in mouse assessed as cell necrosis in liver at 100 to 200 mg/kg measured after 7 days by hematoxylin and eosin staining based analysis; type: organism-based; settings: in vivo, 168 h, dose 100-200 mg/kg, time 7 day
[22] = Toxicity against mouse assessed as effect on complete blood count at 100 to 200 mg/kg measured after 7 days by automated hematology analyzer; type: organism-based; settings: in vivo, 168 h, dose 100-200 mg/kg, time 7 day

With `O=C(Cn1cc(CN2CCN(c3ccnc4cc(Cl)ccc34)CC2)nn1)Nc1cccc([N+](=O)[O-])c1` the Kd (Falcipain 2 [1]) was 2.99 µM, the IC50 (Plasmodium falciparum [2]) was 1.89 µM and the Activity (Plasmodium berghei [3]) was “Active”. The inhibition [4] was 27.3%, the Activity [5] was “Non-Toxic” and the “Ratio IC50” value (Plasmodium falciparum [6]) was 1.95. For the same compound, the Stability [7] was “Stable”, the Activity (Plasmodium falciparum [8]) was “Active” and the Activity_index [9] was 11.53. For the same compound, the Activity (Plasmodium berghei [10]) was “Active”, the Kd (Falcipain 2 [11]) was 14 µM and the Activity (Plasmodium berghei [12]) was “Active”. The Activity [13] was “Non-Toxic”, the Activity [14] was “Non-Toxic” and the IC50 (Falcipain 2 [15]) was 8.1 µM. The Kd (Falcipain-3) was 74 µM, the microsomal CLint at 2 µM [16] was 13.5 µL/min/mg and the “fractional inhibitory concentration index (FICI)” value (Plasmodium falciparum [17]) was 0.5. For the same compound, the Ki (Falcipain 2 [18]) was 0.527 µM, the Activity (Plasmodium falciparum [19]) was “Active” and the Activity (Plasmodium berghei [20]) was 100%. For the same compound, the Activity [21] was “Non-Toxic” and the Activity [22] was “Non-Toxic”.
